Laboratory results reported in US20230381193A1, “METHODS FOR THE TREATMENT OF CHILDHOOD-ONSET FLUENCY DISORDER” (Noema Pharma AG, priority 2021, published 2023).
≈ marks a conversion by molar mass, not a printed value. Read-outs that look alike come from different tables or passages of the source. One block for each molecule: values may come before it.

Experiments:
[1] = Preliminary solid state stability (UPLC analysis); format: physicochemical
Protocol: A defined amount of the crystalline form of the free base of the compound of Formula I (0.2-0.8 mg) was weighed into a 1.8 mL HPLC vial and stored open (75% RH) or closed (ambient) at the temperature and the time indicated. After incubation, compound was dissolved in 1-1.5 mL NMP to a final concentration of 0.2-0.5 mg/mL and submitted to UPLC analysis (254 nm).

[2] = Thermodynamic stability of crystalline form; format: physicochemical; details: at least between 20° C. and 60° C.
[3] = Stability in suspension vehicle and parenteral formulation; format: physicochemical; details: 0.5% HPC/1% Tween 80, up to 5 weeks at RT
Protocol: For parenteral administration, a 30% Kleptose formulation (1.5 mg/ml, physiologic osmolality, pH 6.2), with a stability of at least 4 weeks at 40° C. was developed.

[4] = Solubility of the crystalline form; format: physicochemical; details: for solubility: thermodynamic from solid
Protocol: Solubility in simulated gastric fluid (SGF), fasted state simulated intestinal fluid (FaSSIF), and fed state simulated intestinal fluid (FeSSIF) was 0.019 mg/ml, 0.006 mg/mL, and 0.022 mg/mL, respectively. Solubility increased 50-100-fold in the presence of surfactants (e.g., Tween-80, sodium dodecyl sulfate, dioctyl sulfosuccinate, or Pluronic F68) and cyclodextrins; however it was still rather low.

[5] = Preliminary forced degradation study (acidic, basic, oxidative, photolytic stress; excipient compatibility); format: physicochemical
Protocol: Stability: Preliminary forced degradation study of the crystalline form of the free base of the compound of Formula I in acidic, basic, oxidative, and photolytic stress conditions was conducted to investigate the viability of the crystalline form in various stress conditions. Since the solubility of the compound of Formula I was low in the standard solvent ethanol, ethanol was replaced by N-methyl-2-pyrrolidone (NMP).
The crystalline form of the free base of the compound of Formula I was stable for up to 8 days in solid state at 80° C. and in solution at pH 3 to pH 7 at RT. […] The crystalline form was stable after exposure to light in solid state.

SD rats [6] = assay: Oral glucose tolerance test, first study (acute treatment); details: 3 and 10 mg/kg
Protocol: The study was conducted on 10-week male SD rats fed with chow diet. The glucose challenge was performed 1 hour post last treatment. The glucose load was done per os per gavage (2 g/kg BW), and the formulation was made in saline. The blood glucose and plasma insulin were measured at 0 (before challenge), +15, +30, +60 and +120 minutes. Blood was sampled in EDTA coated tubes, and the blood samples were kept on ice until centrifuged at 4° C. ELISA for Insulin (Mercodia, Uppsala Sweden) and Fluorometric for measuring glucose (AccuCheck System) were used for the analysis. Data Analysis was done using the software JMP for Windows (Version 5.01, SAS institute Inc., SAS Campus Drive, Cary, NC 27513). Analysis of Variance ANOVA (alpha 0.05 and 0.01) followed by Dunnett's test (comparison vs. Control).

SD rats [7] = assay: Oral glucose tolerance test, second study (acute treatment); format: in vivo, rat; details: 10 mg/kg; for Glucose tolerance (oral glucose tolerance test): glucose 2 g/kg per os 1 hour post treatment
Protocol: The second study assessed the impact of acute treatment with the compound of Formula I. The study was conducted on 9-week male SD rats, which were fed with chow diet.

SD rats [8] = assay: Oral glucose tolerance test, third study (sub-chronic, 8 days, alone or in combination); format: in vivo, rat
Protocol: The third study evaluated sub-chronic (8 days) effects of the compound of Formula I alone or in combination with Olanzapine. […] The insulin was measured at time 0 only.

[9] = tested on: adult male patients with COFD; assay: Study A: open-label Phase IIa 6-week study of safety and efficacy in COFD; format: in vivo, human; details: 5 to 15 mg, once daily, oral; study design criterion
Protocol: Provided below is an open-label, Phase IIa, multi-center, 6-week prospective study to evaluate the safety and efficacy of the compound of Formula I at a daily dose range of 5 mg to 15 mg in adult male patients with COFD.

UPLC analysis (Area % main peak) ([1]; 4 w 60° C.): 100 Area % | UPLC analysis (Area % main peak) ([1]; 4 w, 4° C.): 100 Area % | UPLC analysis (Area % main peak) ([1]; 4 w, 40° C.): 100 Area % | UPLC analysis (Area % main peak) ([1]; 4 w, 40° C., 75% RH): 100 Area % | UPLC analysis (Area % main peak) ([1]; 4 w, RT): 100 Area % | Time stable in solid state ([1]; 40-60° C.): at least 4 weeks | UPLC analysis (Area % main peak) ([1]; 1 h, 80° C.): 100 Area % | UPLC analysis (Area % main peak) ([1]; 1 d, 80° C.): 100 Area % | UPLC analysis (Area % main peak) ([1]; 8 d, 80° C.): 100 Area % | Degradation products ([1]; solid state, various temperatures): < 0.5% | Thermodynamic stability [2]: thermodynamically stable | Stability in suspension vehicle [3]: stable | solubility ([4]; aqueous solutions, 22 °C, aqueous buffer, pH>3, read-out: Solubility in aqueous solutions): < 4 µg/mL | solubility ([4]; fasted state simulated intestinal fluid (FaSSIF), 22 °C, fassif, read-out: Solubility in fasted state simulated intestinal fluid (FaSSIF)): 6 µg/mL (≈ 13.9 µM) | solubility ([4]; fed state simulated intestinal fluid (FeSSIF), 22 °C, fessif, read-out: Solubility in fed state simulated intestinal fluid (FeSSIF)): 22 µg/mL (≈ 51 µM) | Solubility increase ([4]; in the presence of surfactants (e.g., Tween-80, sodium dodecyl sulfate, dioctyl sulfosuccinate, Pluronic F68) and cyclodextrins): 50-100 fold | solubility ([4]; organic solvents, organic solvent or mixture, ambient temperature (22° C.), read-out: Solubility in most of the tested organic solvents): < 50000 µg/mL | solubility ([4]; simulated gastric fluid (SGF), 22 °C, simulated gastric fluid, read-out: Solubility in simulated gastric fluid (SGF)): 19 µg/mL (≈ 44 µM) | Excipient compatibility (CompaS assay) [5]: compatible with almost all excipients | Stability towards oxidation ([5]; 1 day): stable | Stability towards daylight ([5]; in solution): stable | Stability in the Suntest ([5]; in solution, time dependent): moderately stable to unstable | Stability in solution ([5]; pH 3 to pH 7 at RT): stable | Stability in solution at higher or lower pH ([5]; pH above 7 or below 3): degradation was observed | Stability towards oxidation ([5]; prolonged exposure): some sensitivity | Stability after exposure to light ([5]; solid state): stable | Stability in solid state ([5]; up to 8 days, 80° C.): stable
SMILES: Cn1ncc(C(=O)N2CCOCC2)c1C(=O)Nc1ccn2nc(-c3ccccc3)nc2c1 [1-methyl-4-(morpholine-4-carbonyl)-N-(2-phenyl[1,2,4]triazolo[1,5-a]pyridin-7-yl)-1H-pyrazole-5-carboxamide]
Particle growth and hydrate formation in suspension vehicle [3]: only minor particle growth and no hydrate formation

SMILES: Cc1cc2c(s1)Nc1ccccc1N=C2N1CCN(C)CC1 [Olanzapine, 2-Methyl-4-(4-methyl-1-piperazinyl)-10H-thieno[2,3-b][1,5]benzodiazepine]
Glucose tolerance (oral glucose tolerance test) (SD rats [6]; glucose 2 g/kg per os 1 hour post treatment): dose-dependent glucose intolerance | Fasting blood glucose (SD rats [6]; male SD rats): dose-dependent increase | Fasting insulin (SD rats [6]; male SD rats): dose-dependent increase | Glucose tolerance (oral glucose tolerance test) (SD rats [7]): glucose intolerance | Fasting blood glucose (SD rats [7]; male SD rats): increase | Glucose tolerance (oral glucose tolerance test) (SD rats [8]; acute treatment, 10 mg/kg, glucose 2 g/kg per os): glucose intolerance | Fasting blood glucose (SD rats [8]; acute treatment, 10 mg/kg, male SD rats): increase

SMILES: Cn1ncc(C(=O)N2CCOCC2)c1C(=O)Nc1ccn2nc(-c3ccccc3)nc2c1 [compound of Formula I, 1-methyl-4-(morpholine-4-carbonyl)-N-(2-phenyl[1,2,4]triazolo[1,5-a]pyridin-7-yl)-1H-pyrazole-5-carboxamide]
Key secondary: Subject-rated Self Assessment of Stuttering [9]: Key secondary: Superior efficacy on the Subject-rated Self | Safety: effect on blood glucose and lipids [9]: No or minimal effect on blood glucose and lipids | Safety: patients with significant weight gain (greater than 7% versus baseline) [9]: Less than 5% of patients with significant weight gain (greater | Secondary: percent of patients with stuttering freedom [9]: Secondary: Superior percent of patients with stuttering | Glucose tolerance (oral glucose tolerance test) (SD rats [7]): did not induce any change | Fasting blood glucose (SD rats [8]; repeated treatment, 8 days, 0.3 mg/kg): no change | Glucose tolerance (oral glucose tolerance test) (SD rats [8]; repeated treatment, 8 days, 0.3 mg/kg, alone): slight glucose tolerance improvement
